# Where a name gives a salt, the structure may show the parent alone. Read-outs that look alike come from different tables or passages of the source.
# Experiments:
# [1] = molecular target: T1, GABA A receptor a1b3g2 (hα1) (Homo sapiens, UniProt P14867+P18507); assay: [3H]flumazenil competition binding, GABA A a1b3g2 receptors in HEK293 cells
# T1 construct: expressed in transfected cells; host or cells: HEK293 (transient transfection), membranes
# Protocol: (§1) Membrane Preparation and Binding Assay
# (§2) The affinity of compounds at GABA A receptor subtypes was measured by competition for [3H]flumazenil (85 Ci/mmol; Roche) binding to HEK293 cells expressing rat (stably transfected) or human (transiently transfected) receptors of composition a1b3g2, a2b3g2, a3b3g2 and a5b3g2.
# (§3) Cell pellets were suspended in Krebs-tris buffer (4.8 mM KCl, 1.2 mM CaCl2, 1.2 mM MgCl2, 120 mM NaCl, 15 mM Tris; pH 7.5; binding assay buffer), homogenized by polytron for ca. 20 sec on ice and centrifuged for 60 min at 4° C. (50000 g; Sorvall, rotor: SM24=20000 rpm). The cell pellets were resuspended in Krebs-tris buffer and homogenized by polytron for ca. 15 sec on ice. Protein was measured (Bradford method, Bio-Rad) and aliquots of 1 mL were prepared and stored at −80° C.
# (§4) Assays were incubated to equilibrium for 1 hour at 4° C. and harvested onto GF/C uni-filters (Packard) by filtration using a Packard harvester and washing with ice-cold wash buffer (50 mM Tris; pH 7.5). After drying, filter-retained radioactivity was detected by liquid scintillation counting. Ki values were calculated using Excel-Fit (Microsoft) and are the means of two determinations.
# (§5) The major important difference is change from SF9 to HEK293 cells (which are human transiently transfected).
# [2] = molecular target: T2, GABA A receptor a5b3g2 (hα5) (Homo sapiens, UniProt P18507+P31644); assay: [3H]flumazenil competition binding, GABA A a5b3g2 receptors in HEK293 cells
# T2 construct: expressed in transfected cells; host or cells: HEK293 (transient transfection), membranes
# Protocol: as §1, §2, §3, §4, §5
# [3] = molecular target: T3, GABA A receptor a2b3g2 (hα2) (Homo sapiens, UniProt P18507+P47869); assay: [3H]flumazenil competition binding, GABA A a2b3g2 receptors in HEK293 cells
# T3 construct: expressed in transfected cells; host or cells: HEK293 (transient transfection), membranes
# Protocol: as §1, §2, §3
# (§6) Radioligand binding assays were carried out in a volume of […] (96-well plates) which contained […] of cell memebranes, [3H]flumazenil at a concentration of 1 nM for a1, a2, a3 subunits and 0.5 nM for a5 subunits and the test compound in the range of 10-10-3×10^-6 M. Nonspecific binding was defined by 10^-5 M diazepam and typically represented less than 5% of the total binding. Assays were incubated to equilibrium for 1 hour at 4° C. and harvested onto GF/C uni-filters (Packard) by filtration using a Packard harvester and washing with ice-cold wash buffer (50 mM Tris; pH 7.5). After drying, filter-retained radioactivity was detected by liquid scintillation counting. Ki values were calculated using Excel-Fit (Microsoft) and are the means of two determinations.
# as §5
# [4] = molecular target: T4, GABA A receptor a3b3g2 (hα3) (Homo sapiens, UniProt P18507+P34903); assay: [3H]flumazenil competition binding, GABA A a3b3g2 receptors in HEK293 cells
# T4 construct: expressed in transfected cells; host or cells: HEK293 (transient transfection), membranes
# Protocol: as §1, §2, §3, §6, §5
# [5] = [3H]flumazenil 1 nM, HEK293 membranes, human transiently transfected, mean of two determinations, read-out: Ki[nM] hα1
# [6] = [3H]flumazenil 0.5 nM, HEK293 membranes, human transiently transfected, mean of two determinations, read-out: Ki[nM] hα5
# [7] = [3H]flumazenil 1 nM, HEK293 membranes, human transiently transfected, mean of two determinations, read-out: Ki[nM] hα2
# [8] = [3H]flumazenil 1 nM, HEK293 membranes, human transiently transfected, mean of two determinations, read-out: Ki[nM] hα3
Compound,"Ki [1, 5]","Ki [2, 6]",Ki [1],Ki [3],Ki [4],"Ki [3, 7]","Ki [4, 8]",Ki [2]
"3-Fluoro-10-(3-methoxy-phenylethynyl)-9H-imidazo[1,5-a][1,2,4]triazolo[1,5-d][1,4]benzodiazepine [Example 34]",14.1 nM,1.1 nM,,,,,,
"Cc1ncn2c1Cn1ncnc1-c1ccccc1-2 [Example 1, 10-Methyl-9H-imidazo[1,5-a][1,2,4]triazolo[1,5-d][1,4]benzodiazepine]",,2.6 nM,41.6 nM,15.5 nM,10.1 nM,,,
"Cc1ncn2c1Cn1ncnc1-c1cc(F)ccc1-2 [Example 2, 3-Fluoro-10-methyl-9H-imidazo[1,5-a][1,2,4]triazolo[1,5-d][1,4]benzodiazepine]",,3 nM,18.2 nM,9.1 nM,10.8 nM,,,
"Cc1ncn2c1Cn1ncnc1-c1cc(Cl)ccc1-2 [Example 3, 3-Chloro-10-methyl-9H-imidazo[1,5-a][1,2,4]triazolo[1,5-d][1,4]benzodiazepine]",,,18.5 nM,,,219 nM,265 nM,3 nM
"CCc1ncn2c1Cn1ncnc1-c1cc(F)ccc1-2 [Example 9, 10-Ethyl-3-fluoro-9H-imidazo[1,5-a][1,2,4]triazolo[1,5-d][1,4]benzodiazepine]",,0.5 nM,7.9 nM,1.9 nM,1.3 nM,,,
"CCc1ncn2c1Cn1ncnc1-c1cc(Cl)ccc1-2 [Example 10, 3-Chloro-10-ethyl-9H-imidazo[1,5-a][1,2,4]triazolo[1,5-d][1,4]benzodiazepine]",,2.1 nM,15.4 nM,9.6 nM,7 nM,,,
"CCc1ncn2c1Cn1ncnc1-c1cc(OC)ccc1-2 [Example 11, 10-Ethyl-3-methoxy-9H-imidazo[1,5-a][1,2,4]triazolo[1,5-d][1,4]benzodiazepine]",,3.8 nM,26.7 nM,84.6 nM,39.1 nM,,,
"CCCc1ncn2c1Cn1ncnc1-c1cc(Cl)ccc1-2 [Example 12, 3-Chloro-10-propyl-9H-imidazo[1,5-a][1,2,4]triazolo[1,5-d][1,4]benzodiazepine]",,1.6 nM,4.2 nM,7.9 nM,5.6 nM,,,
"Clc1ccc2c(c1)-c1ncnn1Cc1c(CC3CC3)ncn1-2 [Example 14, 3-Chloro-10-cyclopropylmethyl-9H-imidazo[1,5-a][1,2,4]triazolo[1,5-d][1,4]benzodiazepine]",,1.7 nM,4.9 nM,10.2 nM,6.1 nM,,,
"C=Cc1ncn2c1Cn1ncnc1-c1ccccc1-2 [Example 18, 10-Vinyl-9H-imidazo[1,5-a][1,2,4]triazolo[1,5-d][1,4]benzodiazepine]",,0.8 nM,12.8 nM,5.7 nM,3.7 nM,,,
"C=Cc1ncn2c1Cn1ncnc1-c1cc(F)ccc1-2 [Example 19, 3-Fluoro-10-vinyl-9H-imidazo[1,5-a][1,2,4]triazolo[1,5-d][1,4]benzodiazepine]",,11 nM,7.8 nM,5.9 nM,2.3 nM,,,
"C=Cc1ncn2c1Cn1ncnc1-c1cc(Cl)ccc1-2 [Example 20, 3-Chloro-10-vinyl-9H-imidazo[1,5-a][1,2,4]triazolo[1,5-d][1,4]benzodiazepine]",,2.2 nM,35.8 nM,33.6 nM,20.8 nM,,,
"C/C=C/c1ncn2c1Cn1ncnc1-c1cc(Cl)ccc1-2 [Example 21, 3-Chloro-10-(E)-propenyl-9H-imidazo[1,5-a][1,2,4]triazolo[1,5-d][1,4]benzodiazepine]",,0.4 nM,5.2 nM,6.9 nM,4.8 nM,,,
"Clc1ccc2c(c1)-c1ncnn1Cc1c(/C=C/C3CC3)ncn1-2 [Example 23, 3-Chloro-10-((E)-2-cyclopropyl-vinyl)-9H-imidazo[1,5-a][1,2,4]triazolo[1,5-d][1,4]benzodiazepine]",,3.7 nM,26.9 nM,41 nM,32.5 nM,,,
"C#Cc1ncn2c1Cn1ncnc1-c1cc(Cl)ccc1-2 [Example 26, 3-Chloro-10-ethynyl-9H-imidazo[1,5-a][1,2,4]triazolo[1,5-d][1,4]benzodiazepine]",,0.5 nM,4.6 nM,6.4 nM,3.5 nM,,,
"C#Cc1ncn2c1Cn1ncnc1-c1cc(Br)ccc1-2 [Example 27, 3-Bromo-10-ethynyl-9H-imidazo[1,5-a][1,2,4]triazolo[1,5-d][1,4]benzodiazepine]",,0.9 nM,20.3 nM,19 nM,11.9 nM,,,
"CC(C)(O)C#Cc1ncn2c1Cn1ncnc1-c1cc(Cl)ccc1-2 [Example 28, 3-Chloro-10-(3-hydroxy-3-methyl-but-1-ynyl)-9H-imidazo[1,5-a][1,2,4]triazolo[1,5-d][1,4]benzodiazepine]",,3.6 nM,91 nM,,,,,
"Clc1ccc2c(c1)-c1ncnn1Cc1c(C#Cc3ccccc3)ncn1-2 [Example 30, 3-Chloro-10-phenylethynyl-9H-imidazo[1,5-a][1,2,4]triazolo[1,5-d][1,4]benzodiazepine]",,1.2 nM,13.3 nM,,,,,
"Fc1cccc(C#Cc2ncn3c2Cn2ncnc2-c2cc(F)ccc2-3)c1 [Example 31, 3-Fluoro-10-(3-fluoro-phenylethynyl)-9H-imidazo[1,5-a][1,2,4]triazolo[1,5-d][1,4]benzodiazepine]",,1.6 nM,5.5 nM,4.5 nM,3.6 nM,,,
"Fc1ccc2c(c1)-c1ncnn1Cc1c(C#Cc3cccc(C(F)(F)F)c3)ncn1-2 [Example 33, 3-Fluoro-10-(3-trifluoromethyl-phenylethynyl)-9H-imidazo[1,5-a][1,2,4]triazolo[1,5-d][1,4]benzodiazepine]",,1.2 nM,3.4 nM,,,,,
"CC(C)c1cccc(C#Cc2ncn3c2Cn2ncnc2-c2cc(F)ccc2-3)c1 [Example 36, 3-Fluoro-10-(3-isopropyl-phenylethynyl)-9H-imidazo[1,5-a][1,2,4]triazolo[1,5-d][1,4]benzodiazepine]",,1.5 nM,4 nM,,,,,
"FC(F)=Cc1ncn2c1Cn1ncnc1-c1ccccc1-2 [Example 40, 10-(2,2-Difluoro-vinyl)-9H-imidazo[1,5-a][1,2,4]triazolo[1,5-d][1,4]benzodiazepine]",,0.5 nM,8.5 nM,3.7 nM,2.3 nM,,,
"FC(F)Cc1ncn2c1Cn1ncnc1-c1ccccc1-2 [Example 41, 10-(2,2-Difluoro-ethyl)-9H-imidazo[1,5-a][1,2,4]triazolo[1,5-d][1,4]benzodiazepine]",,1 nM,13.5 nM,14.4 nM,7 nM,,,
"CCCc1ncn2c1Cn1ncnc1-c1cc(Br)ccc1-2 [Example 42, 3-Bromo-10-propyl-9H-imidazo[1,5-a][1,2,4]triazolo[1,5-d][1,4]benzodiazepine]",,1.4 nM,10.6 nM,,,,,
"Cc1ncn2c1Cn1ncnc1-c1cc(I)ccc1-2 [Example 53, 3-Iodo-10-methyl-9H-imidazo[1,5-a][1,2,4]triazolo[1,5-d][1,4]benzodiazepine hydrochloride (1:1)]",184 nM,,,,,261 nM,126 nM,4.3 nM
"Cc1ncn2c1Cn1ncnc1-c1c(F)cccc1-2 [Example 57, 4-Fluoro-10-methyl-9H-imidazo[1,5-a][1,2,4]triazolo[1,5-d][1,4]benzodiazepine]",,1 nM,4.7 nM,12.8 nM,6.3 nM,,,

# Reference: patent US7432256B2, “Substitued imidazo [1,5-A][1,2,4]triazolo[1,5-D][1,4]benzodiazepine derivatives” (Hoffman-La Roche Inc., priority 2004, dated 2008)
